One assay addresses human p38α (Homo sapiens, UniProt Q16539). As to the kind of experiment: Purified and activated recombinant human p38α assay (HTRF). In kind it is biochemical. The settings on record: 1 nM p38α, 50 μM ATP, 100 nM GST-ATF2-Avitag, 1 hour at RT, read-out: p38a IC50 IC50. The protocol:
Purified and Activated Recombinant Human p38α Assay
Kinase Reaction Buffer: Kinase reaction buffer for p38α HTRF assays consists of 50 mM Tris-pH 7.5, 5 mM MgCl2, 0.1 mg/mL BSA, 100 μM Na3VO4 and 0.5 mM DTT.
HTRF Detection Buffer: HTRF detection buffer contains 100 mM HEPES-pH 7.5, 100 mM NaCl, 0.1% BSA, 0.05% Tween-20, and 10 mM EDTA.
Serial Dilution of Compounds: Compounds were dissolved in 100% DMSO and serially diluted (3 fold, 10 point) in a polypropylene 96-well microtiter plate (drug plate). The final starting concentration of compounds in the p38α enzymatic assays was 1 μM. Columns 6 and 12 (HI controls and LO controls respectively) in the drug plate were reserved as controls and contained only DMSO. Kinase Reaction: The p38α kinase reactions were carried out in a polypropylene 96-well black round bottom assay plate in total volume of 30 μL kinase reaction buffer. Appropriate concentration of purified and activated enzyme (recombinant human) was mixed with indicated concentration of ATP and 100 nM GST-ATF2-Avitag, in the presence or absence (HI control) of Compound. See table below for actual concentrations. In the absence of substrate, the background was measured as LO control. The reaction was allowed to incubate for 1 hour at RT. Assay Reagent Concentrations: The final reagent concentrations were 1 nM p38α and 50 μM ATP. […] After 60 minutes incubation at room temperature, the assay plate was read in a Discovery Plate Reader. The wells were excited with coherent 320 nm light and the ratio of delayed ([…] post excitation) emissions at […] (native europium fluorescence) and 665 nm (europium fluorescence transferred to allophycocyanin—an index of substrate phosphorylation) was determined (Park et al, 1999). Data Analysis: The proportion of substrate phosphorylated in the kinase reaction in the presence of compound compared with that phosphorylated in the presence of DMSO vehicle alone (HI control) was calculated using the formula: % control (POC)=(compound−average LO)/(average HI−average LO)*100. Data (consisting of POC and inhibitor concentration in μM) was fitted to a 4-parameter equation (y=A+((B−A)/(1+((x/C)^D))), where A is the minimum y (POC) value, B is the maximum y (POC), C is the x (compound concentration) at the point of inflection and D is the slope factor, using a Levenburg-Marquardt non-linear regression algorithm.
The inhibition constant (Ki) of the inhibitor was estimated from the IC50 (compound concentration at the point of inflection C) using the Cheng-Prussof equation: Ki=IC50/(1+S/Km), where S is the ATP substrate concentration, and Km is the Michaelis constant for ATP as determined experimentally. All results were expressed as the mean±the standard error of the mean. Data acquisition and non-linear regression algorithms were performed using Activity Base v5.2 and XL-fit software v4.1 respectively. All data was archived using Activity Base v5.2 software.
A general note: TR-FRET usually uses a lanthanide donor and a delayed reading to cut background.

Assay [1] concerns TNF-α induced IL-8 production in human whole blood. Kind of assay: Inhibition of TNF-α induced IL-8 in 50% human whole blood. In kind it is cell-based. The settings on record: 1 nM TNF-α, secreted IL-8, 16-18 hours, read-out: WB TNF/IL8 IC50. The protocol: Inhibition of TNF-α Induced IL-8 in 50% Human Whole Blood
Test compounds were evaluated in vitro for the ability to inhibit the production of secreted IL-8 by whole blood activated with TNF-α. Fresh human whole blood was obtained from healthy, non-medicated volunteers in sodium heparin tubes.
Compound Dilution—Assay Procedure
Test compounds are serially diluted 1:3 in DMSO and then diluted 1:250 into R10 (RPMI 1640, 10% human serum AB, 1× pen/strep/glutamine) to the 4× working concentration to be used in the assay. 100 ul heparinized whole blood is plated into wells of 96 well flat bottom plates. 50 ul of either 4× compound or DMSO control (Final DMSO concentration is 0.1%) are added to the appropriate wells. Plates are incubated for 1 hour at 37 degrees Celsius. 50 ul of 4×TNF-α (4 nM TNF-α, for a final concentration of 1 nM) or control (media alone) is added to the appropriate wells (Total volume=200 ul). Plates are incubated overnight (16-18 hours). 100 ul of supernatant is collected and stored in 96-well round bottom polypropylene plates at −80 degrees Celsius or assayed immediately for IL-8.
Cytokines are measured on antibody (Ab) sandwich ECL based 96-well detection plates. 20 ul of supernatant are added to plate and plate is sealed and shaken at RT for 1 hour. 130 ul of detection Ab cocktail is added and plates are sealed and shaken for 1 hour in the dark at RT. Plates are read on MSD Sector HTS instrument. Data are analyzed and IC50 values generated using Activity Base and Xl-fit programs.

The values below come from patent US8497269B2, “Phthalazine compounds as p38 map kinase modulators and methods of use thereof” (Amgen Inc., priority 2008, dated 2013).

SMILES strings stand for the structures.

Sequence of human p38α (Q16539 whole entry): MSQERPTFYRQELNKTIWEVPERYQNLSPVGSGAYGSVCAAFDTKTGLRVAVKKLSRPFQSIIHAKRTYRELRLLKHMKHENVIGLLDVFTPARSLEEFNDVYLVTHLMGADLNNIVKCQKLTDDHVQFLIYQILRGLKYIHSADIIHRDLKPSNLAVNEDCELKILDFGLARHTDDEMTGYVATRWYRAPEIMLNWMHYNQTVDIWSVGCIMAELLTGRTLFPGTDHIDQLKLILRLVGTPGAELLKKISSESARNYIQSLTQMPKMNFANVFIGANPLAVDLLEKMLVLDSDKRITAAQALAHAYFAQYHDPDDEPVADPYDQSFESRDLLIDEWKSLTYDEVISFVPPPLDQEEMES

As for `CC(Oc1nncc2cc(Nc3ccc(F)cc3F)ccc12)C(F)(F)F` (racemic) [Example 6, N-(2,4-Difluorophenyl)-1-(1,1,1-trifluoropropan-2-yloxy)phthalazin-6-amine], the IC50 at human p38α was determined as 3.1 nM; in assay [1], 37 nM.

For the molecule `CC1CCCN1c1nncc2cc(Nc3ccc(F)cc3F)ccc12` (stereo not shown) [Example 1, N-(2,4-Difluorophenyl)-1-(2-methylpyrrolidin-1-yl)phthalazin-6-amine], the IC50 on human p38α is 1.5 nM; in assay [1], 4.1 nM.

For the molecule `Cc1cc(S(C)(=O)=O)ccc1-c1nncc2cc(Nc3ccc(F)cc3)ccc12` [Example 2, N-(4-Fluorophenyl)-1-(2-methyl-4-(methylsulfonyl)phenyl)phthalazin-6-amine], the IC50 at human p38α was found to be 0.3 nM; in assay [1], 0.8 nM.

In the case of `Cc1ccc(F)cc1Nc1ccc2c(-c3ccc(F)cc3C)nncc2c1` [Example 3, 1-(4-Fluoro-2-methylphenyl)-N-(5-fluoro-2-methylphenyl)phthalazin-6-amine], the IC50 on human p38α came to 0.5 nM; in assay [1], 3.5 nM.

Take `Cc1cc(F)ccc1-c1nncc2cc(Sc3cccc(F)c3)ccc12` [Example 4, 1-(4-Fluoro-2-methylphenyl)-6-(3-fluorophenylthio)phthalazine]: the IC50 was found to be 1 nM at human p38α and 66.9 nM in assay [1].

In the case of `CC(c1nncc2cc(Nc3ccc(F)cc3)ccc12)C(F)(F)F` (stereo not shown) [Example 5, N-(4-Fluorophenyl)-1-(2,2,2-trifluoro-1-methylethyl)-6-phthalazinamine], the IC50 on human p38α came out at 1 nM; in assay [1], 3.9 nM.

As to `C[C@@H](Oc1nncc2cc(Nc3ccc(F)cc3F)ccc12)C(F)(F)F` [Example 6a, N-(2,4-difluorophenyl)-1-(((1R)-2,2,2-trifluoro-1-methylethyl)oxy)-6-phthalazinamine], the IC50 at human p38α stood at 1.5 nM; in assay [1], 24 nM.

Take `C[C@H](Oc1nncc2cc(Nc3ccc(F)cc3F)ccc12)C(F)(F)F` [Example 6b, N-(2,4-difluorophenyl)-1-(((1S)-2,2,2-trifluoro-1-methylethyl)oxy)-6-phthalazinamine]: the IC50 worked out at 4.6 nM on human p38α and 89 nM in assay [1].

For `CC(C)c1nncc2cc(Nc3ccc(F)cc3F)ccc12` [Example 7, N-(2,4-Difluorophenyl)-1-isopropylphthalazin-6-amine], the results for the IC50 (at human p38α; in assay [1]) were 0.4 nM and 2.4 nM, respectively.

Regarding `Cc1ccccc1-c1nncc2cc(Nc3ccc(F)cc3F)ccc12` [Example 8, N-(2,4-difluorophenyl)-1-(2-methylphenyl)-6-phthalazinamine], the IC50 at human p38α turned out to be 0.2 nM; in assay [1], 1.7 nM.

Consider `Cc1ccccc1-c1nncc2cc(Nc3ccccc3)ccc12` [Example 9, 1-(2-methylphenyl)-N-phenyl-6-phthalazinamine], for which the IC50 on human p38α amounted to 0.2 nM; in assay [1], 1.5 nM.

Turning to `Cc1cc(S(C)(=O)=O)ccc1-c1nncc2cc(Nc3ccc(F)cc3F)ccc12` [Example 10, N-(2,4-difluorophenyl)-1-(2-methyl-4-(methylsulfonyl)phenyl)-6-phthalazinamine], the IC50 stood at 0.3 nM at human p38α and 0.5 nM in assay [1].

`Cc1cc(F)ccc1-c1nncc2cc(Nc3ccc(F)cc3)ccc12` [Example 11, 1-(4-fluoro-2-methylphenyl)-N-(4-fluorophenyl)-6-phthalazinamine]: the IC50 at human p38α was determined as 0.4 nM; in assay [1] it was 1.5 nM.

As for `Cc1cc(S(C)(=O)=O)c(F)cc1-c1nncc2cc(Nc3ccc(F)cc3F)ccc12` [Example 12, N-(2,4-difluorophenyl)-1-(5-fluoro-2-methyl-4-(methylsulfonyl)phenyl)-6-phthalazinamine], the results for the IC50 (at human p38α; in assay [1]) were 0.5 nM and 0.8 nM, respectively.

On to `Cc1cc(F)ccc1-c1nncc2cc(Nc3ccc(F)cc3C(F)(F)F)ccc12` [Example 13, 1-(4-fluoro-2-methylphenyl)-N-(4-fluoro-2-(trifluoromethyl)phenyl)-6-phthalazinamine], for which the IC50 at human p38α was found to be 0.5 nM; in assay [1] it was 9.9 nM.

As to `Cc1cc(F)ccc1-c1nncc2cc(Nc3ncccc3C)ccc12` [Example 14, 1-(4-fluoro-2-methylphenyl)-N-(3-methyl-2-pyridinyl)-6-phthalazinamine], the IC50 on human p38α worked out at 0.7 nM; in assay [1] it was 6.6 nM.

As to `Cc1cccc(Nc2ccc3c(-c4ccc(F)cc4C)nncc3c2)n1` [Example 15, 1-(4-fluoro-2-methylphenyl)-N-(6-methyl-2-pyridinyl)-6-phthalazinamine], the IC50 was 1.5 nM on human p38α and 11.4 nM in assay [1].

Regarding `Cc1cc(F)ccc1-c1nncc2cc(Nc3ccccn3)ccc12` [Example 16, 1-(4-fluoro-2-methylphenyl)-N-2-pyridinyl-6-phthalazinamine], the IC50 at human p38α came out at 1.6 nM; in assay [1], 16.1 nM.

Turning to `CC1CCCN1c1nncc2cc(Nc3ccccc3)ccc12` (stereo not shown) [Example 17, 1-(2-methyl-1-pyrrolidinyl)-N-phenyl-6-phthalazinamine], the values for the IC50 (on human p38α; in assay [1]) were 5 nM and 6.7 nM, respectively.

Regarding `Cc1cc(F)ccc1-c1nncc2cc(Nc3cccc(F)c3C)ccc12` [Example 18, N-(3-fluoro-2-methylphenyl)-1-(4-fluoro-2-methylphenyl)-6-phthalazinamine], the figures for the IC50 (on human p38α; in assay [1]) were 0.3 nM and 1.8 nM, respectively.

Consider `Cc1cccc(Nc2ccc3c(-c4ccc(F)cc4C)nncc3c2)c1` [Example 19, 1-(4-fluoro-2-methylphenyl)-N-(3-methylphenyl)-6-phthalazinamine], for which the figures for the IC50 (at human p38α; in assay [1]) were 0.3 nM and 2.2 nM, respectively.

As for `Cc1cc(F)ccc1Nc1ccc2c(-c3ccc(F)cc3C)nncc2c1` [Example 20, N,1-bis(4-fluoro-2-methylphenyl)-6-phthalazinamine], the IC50 on human p38α was determined as 0.3 nM; in assay [1] it was 1.8 nM.

For `Cc1cc(F)ccc1-c1nncc2cc(Nc3cccc(F)c3)ccc12` [Example 21, 1-(4-fluoro-2-methylphenyl)-N-(3-fluorophenyl)-6-phthalazinamine], the IC50 at human p38α was found to be 0.5 nM; in assay [1], 3.2 nM.

Take `Cc1cc(F)ccc1-c1nncc2cc(Nc3ccc(F)cn3)ccc12` [Example 22, 1-(4-fluoro-2-methylphenyl)-N-(5-fluoro-2-pyridinyl)-6-phthalazinamine]: the IC50 at human p38α is 0.8 nM; in assay [1], 10.9 nM.

In the case of `Cc1cc(S(C)(=O)=O)c(F)cc1-c1nncc2cc(Nc3ccc(F)cc3)ccc12` [Example 24, 1-(5-fluoro-2-methyl-4-(methylsulfonyl)phenyl)-N-(4-fluorophenyl)-6-phthalazinamine], the IC50 on human p38α amounted to 0.7 nM; in assay [1], 4.7 nM.

As to `Cc1cc(S(C)(=O)=O)c(Cl)cc1-c1nncc2cc(Nc3ccc(F)cc3)ccc12` [Example 25, 1-(5-chloro-2-methyl-4-(methylsulfonyl)phenyl)-N-(4-fluorophenyl)-6-phthalazinamine], the IC50 on human p38α stood at 0.7 nM; in assay [1], 4.5 nM.
